# Experiments:
# Type in all cases: cell-based
# [1] = tested on: p-Akt 1/2/3 (Ser473) in MCF-7 cells; experiment: AlphaLISA Ultra pAKT assay; details: Homo sapiens, 1.5 h; MCF7 cells, 90 min
# Outline: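 MCF-7 cells (16,000˜20,000 per well in 36 μL medium) were seeded in Corning 3701 plates for 20˜24 hour, refreshed with new medium for 90 minutes, then given 12 μL of 4× compound (0.5% final DMSO). Cells were lysed with 2× lysis buffer, and lysate was analyzed by AlphaLISA Ultra pAKT using acceptor and donor beads, read on an EnSpire reader.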
# mTORC1 over mTORC2 = mTORC1 over mTORC2 selectivity by comparing pS6K1 and pAKT IC50; details: by comparing pS6K1 and pAKT IC50, 90 min
# Outline: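 MCF-7 cells were treated with compounds (0.5% final DMSO) for 90 minutes in one protocol and 2 hours in the other, then lysed. Phospho-signal in lysates was read by bead-based donor/acceptor proximity assay. pS6K1 and pAKT IC50 values were compared to judge mTORC1 over mTORC2 selectivity, at 90 min and at 24 hrs.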
# [2] = tested on: p-p70 S6 Kinase (Thr389) in MCF-7 cells; experiment: AlphaLISA Ultra pS6K1 assay; details: Homo sapiens, 1.5 h; MCF7 cells, 90 min
# Outline: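 Phospho-S6K1 (Thr389) quantified by AlphaLISA Ultra read-out (2 h acceptor, then 2 h donor beads) in lysates of MCF-7 cells. Cells were plated 20–24 h before, refed 2 h, exposed to compounds for 90 min at 0.5% final DMSO, and lysates stored at −80 °C.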
IC50 [1] [nM],IC50 [2] [nM],SMILES,mTORC1 selective @ 90 min (mTORC1 over mTORC2)
≥ 1000,1 to 10,"COCCOCCO[C@@H]1C[C@@H]2CC[C@@H](C)[C@@](O)(O2)C(=O)C(=O)N2CCCC[C@H]2C(=O)O[C@H]([C@H](C)C[C@@H]2CC[C@@H](OCCO)[C@H](OC)C2)CC(=O)[C@H](C)/C=C(\C)[C@@H](OC)[C@@H](OC)C(=O)[C@H](C)C[C@H](C)/C=C/C=C/C=C/1C [I-36, (23E,25E,27E,28E,36R,37S,38R,39R,41S,43S,45R,46S,47R,48R,57R)-57-hydroxy-46-[(1R)-2-[(1S,3R,4R)-4-(2-hydroxyethoxy)-3-methoxy-cyclohexyl]-1-methyl-ethyl]-47,48-dimethoxy-45-[2-(2-methoxyethoxy)ethoxy]-36,37,38,39,49,50-hexamethyl-66,67-dioxa-58-azatricyclohexatriaconta-23,25,27(49),28(50)-tetraene-51,52,53,54,55-pentone]",Yes
≥ 1000,10 to 100,"CO[C@@H]1/C(C)=C/[C@@H](C)C(=O)C[C@@H]([C@H](C)C[C@@H]2CC[C@@H](OCCO)[C@H](OC)C2)OC(=O)[C@@H]2CCCCN2C(=O)C(=O)[C@]2(O)O[C@@H](CC[C@H]2C)CC(OCCOCCOC2COC2)/C(C)=C/C=C/C=C/[C@@H](C)C[C@@H](C)C(=O)[C@@H]1OC (stereo partly drawn) [I-80, (1R,9S,12S,15R,16E,18R,19R,21R,23S,24E,26E,28E,32S,35R)-1-hydroxy-12-[(1R)-2-[(1S,3R,4R)-4-(2-hydroxyethoxy)-3-methoxy-cyclohexyl]-1-methyl-ethyl]-18,19-dimethoxy-15,17,21,23,29,35-hexamethyl-30-[2-[2-(oxetan-3-yloxy)ethoxy]ethoxy]-11,36-dioxa-4-azatricyclo[30.3.1.0^4,9]hexatriaconta-16,24,26,28-tetraene-2,3,10,14,20-pentone]",Yes
≥ 1000,10 to 100,"COCCO[C@@H]1CC[C@@H](C[C@@H](C)[C@@H]2CC(=O)[C@H](C)/C=C(\C)[C@@H](OC)[C@@H](OC)C(=O)[C@H](C)C[C@H](C)/C=C/C=C/C=C(\C)C(OCCOCCOC3COC3)C[C@@H]3CC[C@@H](C)[C@@](O)(O3)C(=O)C(=O)N3CCCC[C@H]3C(=O)O2)C[C@H]1OC (stereo partly drawn) [I-81, (1R,9S,12S,15R,16E,18R,19R,21R,23S,24E,26E,28E,32S,35R)-1-hydroxy-18,19-dimethoxy-12-[(1R)-2-[(1S,3R,4R)-3-methoxy-4-(2-methoxyethoxy)cyclohexyl]-1-methyl-ethyl]-15,17,21,23,29,35-hexamethyl-30-[2-[2-(oxetan-3-yloxy)ethoxy]ethoxy]-11,36-dioxa-4-azatricyclo[30.3.1.0^4,9]hexatriaconta-16,24,26,28-tetraene-2,3,10,14,20-pentone]",Yes
≥ 1000,1 to 10,"CO[C@@H]1C[C@H](C[C@@H](C)[C@@H]2CC(=O)[C@H](C)/C=C(\C)[C@@H](O)[C@@H](OC)C(=O)[C@H](C)C[C@H](C)/C=C/C=C/C=C(\C)[C@H](OCCOC3COC3)C[C@@H]3CC[C@@H](C)[C@@](O)(O3)C(=O)C(=O)N3CCCC[C@H]3C(=O)O2)CC[C@H]1OCCCN1C[C@@H](C)O[C@@H](C)C1 [I-100, (27E,29E,31E,32E,39R,40S,41R,44R,46S,48S,50R,51S,53R,54R,63R)-51-[(1R)-2-[(1S,3R,4R)-4-[3-[(2S,6R)-2,6-dimethylmorpholin-4-yl]propoxy]-3-methoxy-cyclohexyl]-1-methyl-ethyl]-53,63-dihydroxy-54-methoxy-39,40,41,44,55,56-hexamethyl-50-[2-(oxetan-3-yloxy)ethoxy]-75,76-dioxa-64-azatricyclohexatriaconta-27,29,31(55),32(56)-tetraene-57,58,59,60,61-pentone]",Yes
≥ 1000,1 to 10,"CO[C@@H]1C[C@H](C[C@@H](C)[C@@H]2CC(=O)[C@H](C)/C=C(\C)[C@@H](O)[C@@H](OC)C(=O)[C@H](C)C[C@H](C)/C=C/C=C/C=C(\C)C(OCCOC3COC3)C[C@@H]3CC[C@@H](C)[C@@](O)(O3)C(=O)C(=O)N3CCCC[C@H]3C(=O)O2)CC[C@H]1O (stereo partly drawn) [I-88, (23E,25E,27E,28E,32R,33S,34R,35R,37S,39S,41R,42S,44R,45R,54R)-44,54-dihydroxy-42-[(1R)-2-[(1S,3R,4R)-4-hydroxy-3-methoxy-cyclohexyl]-1-methyl-ethyl]-45-methoxy-32,33,34,35,46,47-hexamethyl-41-[2-(oxetan-3-yloxy)ethoxy]-65,66-dioxa-55-azatricyclohexatriaconta-23,25,27(46),28(47)-tetraene-48,49,50,51,52-pentone]",Yes
≥ 1000,1 to 10,"CO[C@@H]1C[C@H](C[C@@H](C)[C@@H]2CC(=O)[C@H](C)/C=C(\C)[C@@H](O)[C@@H](OC)C(=O)[C@H](C)C[C@H](C)/C=C/C=C/C=C(\C)[C@@H](OCC3COCCO3)C[C@@H]3CC[C@@H](C)[C@@](O)(O3)C(=O)C(=O)N3CCCC[C@H]3C(=O)O2)CC[C@H]1OCCCO (stereo partly drawn) [I-93, (24E,26E,28E,29E,35R,36S,37R,38R,40S,42S,44S,45S,47R,48R,57R)-44-(1,4-dioxan-2-ylmethoxy)-47,57-dihydroxy-45-[(1R)-2-[(1S,3R,4R)-4-(3-hydroxypropoxy)-3-methoxy-cyclohexyl]-1-methyl-ethyl]-48-methoxy-35,36,37,38,49,50-hexamethyl-69,70-dioxa-58-azatricyclohexatriaconta-24,26,28(49),29(50)-tetraene-51,52,53,54,55-pentone]",Yes
≥ 1000,100 to 1000,"CO[C@@H]1/C(C)=C/[C@@H](C)C(=O)C[C@@H]([C@H](C)C[C@@H]2CC[C@@H](OC)[C@H](OC)C2)OC(=O)[C@@H]2CCCCN2C(=O)C(=O)[C@]2(O)O[C@@H](CC[C@H]2C)C[C@@H](OCC2COCCO2)/C(C)=C/C=C/C=C/[C@@H](C)C[C@@H](C)C(=O)[C@@H]1OC (stereo partly drawn) [I-39, (26E,28E,30E,31E,34R,35S,36R,37R,39S,41S,43R,44S,46R,47R,56R)-44-[(1R)-2-[(1S,3R,4R)-3,4-dimethoxycyclohexyl]-1-methyl-ethyl]-43-(1,4-dioxan-2-ylmethoxy)-56-hydroxy-46,47-dimethoxy-34,35,36,37,48,49-hexamethyl-66,67-dioxa-57-azatricyclohexatriaconta-26,28,30(48),31(49)-tetraene-50,51,52,53,54-pentone]",Yes
≥ 1000,10 to 100,"COCCO[C@@H]1CC[C@@H](C[C@@H](C)[C@@H]2CC(=O)[C@H](C)/C=C(\C)[C@@H](OC)[C@@H](OC)C(=O)[C@H](C)C[C@H](C)/C=C/C=C/C=C(\C)[C@H](OCCOC3COC3)C[C@@H]3CC[C@@H](C)[C@@](O)(O3)C(=O)C(=O)N3CCCC[C@H]3C(=O)O2)C[C@H]1OC [I-82, (1R,9S,12S,15R,16E,18R,19R,21R,23S,24E,26E,28E,30R,32S,35R)-1-hydroxy-18,19-dimethoxy-12-[(1R)-2-[(1S,3R,4R)-3-methoxy-4-(2-methoxyethoxy)cyclohexyl]-1-methyl-ethyl]-15,17,21,23,29,35-hexamethyl-30-[2-(oxetan-3-yloxy)ethoxy]-11,36-dioxa-4-azatricyclo[30.3.1.0^4,9]hexatriaconta-16,24,26,28-tetraene-2,3,10,14,20-pentone]",Yes

# Reference: US20220267352A1, “RAPAMYCIN ANALOGS AND USES THEREOF” (Anakuria Therapeutics, Inc., priority 2021, published 2022)
